One may read the Kd as the constant that tells how readily two partners part at equilibrium. Read a high Kd as weaker binding.

This passage reports Kd results from article PMC8048873 (The Plant Journal, 2021).

Structures are written as SMILES.

In this assay the target is T1, CERK1 ectodomain (CERK1-ECD; LYK1) (Arabidopsis thaliana, UniProt A8R7E6).
T1 sequence (A8R7E6 24-232): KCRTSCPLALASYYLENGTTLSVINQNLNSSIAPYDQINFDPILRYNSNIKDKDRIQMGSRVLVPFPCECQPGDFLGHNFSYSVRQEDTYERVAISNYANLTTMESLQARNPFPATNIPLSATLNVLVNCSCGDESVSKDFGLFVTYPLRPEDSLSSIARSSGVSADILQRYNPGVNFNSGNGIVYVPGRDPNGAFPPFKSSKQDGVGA
In words: isothermal titration calorimetry. To be noted: 20 mM MES pH 6.5, 150 mM NaCl, 25°C; 50 µM protein in cell, ligand 500 µM or 1 mM; n = 2. The class given is binding. Background: In ITC the heat of successive injections is recorded.

Molecule `CC(=O)N[C@H]1[C@H](O[C@H]2[C@H](O)[C@@H](NC(C)=O)[C@H](O[C@H]3[C@H](O)[C@@H](NC(C)=O)C(O)O[C@@H]3CO)O[C@@H]2CO)O[C@H](CO)[C@@H](O[C@@H]2O[C@H](CO)[C@@H](O[C@@H]3O[C@H](CO)[C@@H](O[C@@H]4O[C@H](CO)[C@@H](O)[C@H](O)[C@H]4NC(C)=O)[C@H](O)[C@H]3NC(C)=O)[C@H](O)[C@H]2NC(C)=O)[C@@H]1O` (stereo partly drawn) [1,4‐β‐D‐(GlcNAc)6, chitohexaose] showed a Kd of 37.5 ± 10 µM.
